The term IC50 denotes the concentration that gives 50% inhibition.

For one data set, the target named is hROMK (human Kir1.1) (Homo sapiens (Human), UniProt P48048). Nature of the data set: cell-based. Conditions: CHO T-Rex hROMK stable cell line; thallium flux; 10-point concentration response curve; read-out: Human ROMK Th Flux IC50.
Chain of hROMK (human Kir1.1) (P48048 whole entry): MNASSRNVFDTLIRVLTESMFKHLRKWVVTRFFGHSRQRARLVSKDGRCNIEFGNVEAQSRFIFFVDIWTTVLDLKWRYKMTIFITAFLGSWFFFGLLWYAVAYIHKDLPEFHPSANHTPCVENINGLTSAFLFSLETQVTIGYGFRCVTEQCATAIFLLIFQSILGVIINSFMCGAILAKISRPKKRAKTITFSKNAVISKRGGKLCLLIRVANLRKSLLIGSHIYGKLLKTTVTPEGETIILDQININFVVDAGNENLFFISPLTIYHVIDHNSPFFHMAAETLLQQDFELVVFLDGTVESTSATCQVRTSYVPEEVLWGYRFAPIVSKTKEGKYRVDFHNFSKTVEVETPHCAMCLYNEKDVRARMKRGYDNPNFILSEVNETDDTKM
Turning to `Cc1cc(-n2cc(CN3CC(CO)NC(c4ccc5c(c4C)COC5=O)C3)nn2)ncc1C#N` (single isomer, unassigned) [Example 88-III, 6-(4-((3-(hydroxymethyl)-5-(4-methyl-1-oxo-1,3-dihydroisobenzofur-an-5-yl)piperazin-1-yl)methyl)-1H-1,2,3-triazol-1-yl)-4-methylnicotinonitrile], the IC50 came to 36 nM.
On the same count and under the same terms, next, `Cc1cc(-n2cc(CN3CCC(C)(O)C(c4ccc5c(c4C)COC5=O)C3)cn2)ncc1C#N` (single isomer, unassigned) [Example 114-I, 6-(4-((4-hydroxy-4-methyl-3-(4-methyl-1-oxo-1,3-dihydroisobenzofuran-5-yl)piperidin-1-yl)methyl)-1H-pyrazol-1-yl)-4-methylnicotinonitrile]: 32 nM.
Take `Cc1cc(-n2cc(CN3CC(c4ccc5c(c4C)COC5=O)NCC3CO)cn2)ncc1C#N` (single isomer, unassigned) [Example 123-I, 6-(4-((2-(hydroxymethyl)-5-(4-methyl-1-oxo-1,3-dihydroisobenzofuran-5-yl)piperazin-1-yl)methyl)-1H-pyrazol-1-yl)-4-methylnicotinonitrile]: the IC50 stood at 74 nM.
Consider `Cc1cc(-n2ncc(CN3C[C@H](C)N(O)[C@H](c4ccc5c(c4C)COC5=O)C3)n2)ncc1C#N` [Example 246-I, 6-(4-(((3S,5R)-4-hydroxy-3-methyl-5-(4-methyl-1-oxo-1,3-dihydroisobenzofuran-5-yl)piperazin-1-yl)methyl)-2H-1,2,3-triazol-2-yl)-4-methylnicotinonitrile], for which the IC50 is 870 nM.
In the case of `Cc1cc(-n2ccc(CN3C[C@@H](c4ccc5c(c4C)COC5=O)N[C@@H](C)C3)cc2=O)ncc1C#N` [Example 247-I, 4′-methyl-4-(((3S,5R)-3-methyl-5-(4-methyl-1-oxo-1,3-dihydroisobenzofuran-5-yl)piperazin-1-yl)methyl)-2-oxo-2H-[1,2′-bipyridine]-5′-carbonitrile], the IC50 worked out at 330 nM.
The same measure, in the same setting: in the case of `Cc1cc(N2CCCS2(=O)=O)cc(-n2cc(CN3C[C@@H](c4ccc5c(c4C)COC5=O)N[C@@H](C)C3)cn2)n1` [Example 253-I, 5-((2R,6S)-4-((1-(4-(1,1-dioxidoisothiazolidin-2-yl)-6-methylpyridin-2-yl)-1H-pyrazol-4-yl)methyl)-6-methylpiperazin-2-yl)-4-methylisobenzofuran-1(3H)-one] it was 400 nM.
Consider `COc1cc(N2CC(CN3C[C@@H](c4ccc5c(c4C)COC5=O)N[C@@H](C)C3)CC2=O)ccn1` (stereo partly drawn) [Example 254-I, 1-(2-methoxypyridin-4-yl)-4-(((3S,5R)-3-methyl-5-(4-methyl-1-oxo-1,3-dihydroisobenzofuran-5-yl)piperazin-1-yl)methyl)pyrrolidin-2-one], for which the IC50 was determined as 1600 nM.
On to `CNC(=O)c1nn(-c2cc(OC)c(C#N)cn2)cc1CN1CCN[C@H](c2ccc3c(c2C)COC3=O)C1` [Example 260-I, (R)-1-(5-cyano-4-methoxypyridin-2-yl)-N-methyl-4-((3-(4-methyl-1-oxo-1,3-dihydroisobenzofuran-5-yl)piperazin-1-yl)methyl)-1H-pyraozl-3-carboxamide], for which the IC50 was found to be 430 nM.
The same measure, in the same setting: in the case of `COc1cc(-n2cc(CN3CCN[C@H](c4ccc5c(c4C)COC5=O)C3)c(C(N)=O)n2)ncc1C#N` [Example 262-I, (R)-1-(5-cyano-4-methoxypyridin-2-yl)-4-((3-(4-methyl-1-oxo-1,3-dihydroisobenzofuran-5-yl)piperazin-1-yl)methyl)-1H-pyrazole-3-carboxamide] it was 120 nM.
For the compound `Cc1noc(-c2ccc(CN3CCN[C@H](c4ccc5c(c4C)COC5=O)C3)cn2)n1` [Example 264-I, (R)-4-methyl-5-(4-((6-(3-methyl-1,2,4-oxadiazol-5-yl)pyridin-3-yl)methyl)piperazin-2-yl)isobenzofuran-1(3H)-one], the IC50 was 580 nM.
The same measure, in the same setting: in the case of `Cc1c([C@@H]2CN(Cc3cnn(-c4ccn(C(F)F)c(=O)c4)n3)C[C@H](C)N2)ccc2c1COC2=O` [Example 270-I, 1-(difluoromethyl)-4-(4-(((3S,5R)-3-methyl-5-(4-methyl-1-oxo-1,3-dihydroisobenzofuran-5-yl)piperazin-1-yl)methyl)-2H-1,2,3-triazol-2-yl)pyridin-2(1H)-one] it was 580 nM; in that of `Cc1c([C@@H]2CN(Cc3cn(-c4ccnc(C(F)F)n4)cn3)C[C@H](C)N2)ccc2c1COC2=O` [Example 271-I, 5-((2R,6S)-4-((1-(2-(difluoromethyl)pyrimidin-4-yl)-1H-imidazol-4-yl)methyl)-6-methylpiperazin-2-yl)-4-methylisobenzofuran-1(3H)-one], 100 nM.

In another data set the target is hERG channels (Homo sapiens (Human), UniProt Q12809). As to the kind of experiment: hERG Manual Patch Clamp Assay. The data set is classed as cell-based. Conditions: human, HEK 293 cells stably expressing hERG channels, pH 7.4, 1 uM, read-out: hERG EP % Inh @ 1 uM.
Chain of hERG channels (Q12809 whole entry): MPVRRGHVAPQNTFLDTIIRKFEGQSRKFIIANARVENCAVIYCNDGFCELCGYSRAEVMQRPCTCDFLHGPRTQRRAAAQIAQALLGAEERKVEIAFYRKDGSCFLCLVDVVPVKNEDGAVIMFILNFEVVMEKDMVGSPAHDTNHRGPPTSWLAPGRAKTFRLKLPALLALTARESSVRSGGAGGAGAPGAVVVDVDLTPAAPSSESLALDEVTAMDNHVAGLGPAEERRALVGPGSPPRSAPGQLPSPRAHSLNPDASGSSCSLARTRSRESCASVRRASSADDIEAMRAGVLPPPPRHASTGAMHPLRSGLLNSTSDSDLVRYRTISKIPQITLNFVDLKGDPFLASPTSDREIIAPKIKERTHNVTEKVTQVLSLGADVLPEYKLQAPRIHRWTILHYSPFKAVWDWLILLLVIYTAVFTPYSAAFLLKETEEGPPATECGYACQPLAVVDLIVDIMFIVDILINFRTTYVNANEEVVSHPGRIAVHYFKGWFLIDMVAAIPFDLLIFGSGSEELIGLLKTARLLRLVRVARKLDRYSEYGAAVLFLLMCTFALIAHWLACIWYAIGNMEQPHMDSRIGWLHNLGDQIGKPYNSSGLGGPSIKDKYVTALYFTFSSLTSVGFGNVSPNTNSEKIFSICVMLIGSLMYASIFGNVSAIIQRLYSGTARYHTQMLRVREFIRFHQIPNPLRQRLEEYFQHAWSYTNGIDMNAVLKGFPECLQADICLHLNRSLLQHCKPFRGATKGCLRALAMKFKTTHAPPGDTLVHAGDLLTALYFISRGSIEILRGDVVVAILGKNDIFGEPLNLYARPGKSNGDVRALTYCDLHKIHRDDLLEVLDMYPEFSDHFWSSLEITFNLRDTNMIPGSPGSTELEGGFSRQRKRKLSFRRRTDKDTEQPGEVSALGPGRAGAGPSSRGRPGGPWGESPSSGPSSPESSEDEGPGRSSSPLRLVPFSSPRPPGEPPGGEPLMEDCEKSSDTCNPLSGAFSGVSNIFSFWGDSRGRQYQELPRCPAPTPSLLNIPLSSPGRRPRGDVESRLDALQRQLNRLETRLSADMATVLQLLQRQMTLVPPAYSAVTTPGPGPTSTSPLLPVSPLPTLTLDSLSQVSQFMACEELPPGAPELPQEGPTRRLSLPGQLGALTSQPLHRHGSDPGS
`Cc1cc(-n2cc(CN3CC(CO)NC(c4ccc5c(c4C)COC5=O)C3)nn2)ncc1C#N` (single isomer, unassigned) [Example 88-III, 6-(4-((3-(hydroxymethyl)-5-(4-methyl-1-oxo-1,3-dihydroisobenzofur-an-5-yl)piperazin-1-yl)methyl)-1H-1,2,3-triazol-1-yl)-4-methylnicotinonitrile]: the inhibition at 1 µM stood at 8.3%.
Turning to `COc1cc(-n2cc(CN3CC(CO)NC(c4ccc5c(c4C)COC5=O)C3)cn2)ncc1C#N` (single isomer, unassigned) [Example 89-III], the inhibition at 1 µM stood at 14%.
As for `Cc1cc(-n2cc(CN3CCC(C)(O)C(c4ccc5c(c4C)COC5=O)C3)cn2)ncc1C#N` (single isomer, unassigned) [Example 114-I, 6-(4-((4-hydroxy-4-methyl-3-(4-methyl-1-oxo-1,3-dihydroisobenzofuran-5-yl)piperidin-1-yl)methyl)-1H-pyrazol-1-yl)-4-methylnicotinonitrile], the inhibition at 1 µM amounted to 4.2%.
Turning to `Cc1cc(-n2cc(CN3CC(c4ccc5c(c4C)COC5=O)NCC3CO)cn2)ncc1C#N` (single isomer, unassigned) [Example 123-I, 6-(4-((2-(hydroxymethyl)-5-(4-methyl-1-oxo-1,3-dihydroisobenzofuran-5-yl)piperazin-1-yl)methyl)-1H-pyrazol-1-yl)-4-methylnicotinonitrile], the inhibition at 1 µM was determined as 7.2%.
Take `COc1cc(N2CCC(CN3CCN[C@H](c4ccc5c(c4C)COC5=O)C3)C2)ncc1C#N` (single isomer, unassigned) [Example 154-I]: the inhibition at 1 µM was determined as 43%.
For the compound `Cc1cc(-n2cc(CN3CC(c4ccc5c(c4C)COC5=O)OC(C)(C)C3)cn2)ncc1C#N` (single isomer, unassigned) [Example 256-II, 6-(4-((2,2-dimethyl-6-(4-methyl-1-oxo-1,3-dihydroisobenzofuran-5-yl)morpholino)methyl)-1H-pyrazol-1-yl)-4-methylnicotinonitrile], the inhibition at 1 µM was determined as 13%.
Consider `Cc1cc(-n2cc(CN3CC(=O)N[C@H](c4ccc5c(c4C)COC5=O)C3)cn2)ncc1C#N` [Example 15-I, (R)-4-methyl-6-(4-((3-(4-methyl-1-oxo-1,3-dihydroisobenzofuran-5-yl)-5-oxopiperazin-1-yl)methyl)-1H-pyrazol-1-yl)nicotinonitrile], for which the inhibition at 1 µM was determined as 5.8%.
The same measure, in the same setting: next, `Cc1c([C@@H]2CN(Cc3cnn(-c4ccc(C#N)nc4)c3)CCO2)ccc2c1COC2=O` [Example 48-I, (R)-5-(4-((2-(4-methyl-1-oxo-1,3-dihydroiso-benzofuran-5-yl)morpho-lino)methyl)-1H-pyrazol-1-yl)picolinonitrile]: 78%; `COc1cc(-n2cc(CN3CCO[C@H](c4ccc5c(c4C)COC5=O)C3)cn2)ccc1C#N` [Example 49-I, (R)-2-methoxy-4-(4-((2-(4-methyl-1-oxo-1,3-dihydroisobenzofuran-5-yl)morpholino)methyl)-1H-pyrazol-1-yl) benzonitrile]: 27%.
Regarding `Cc1cc(-n2cnc(CN3C[C@@H](c4ccc5c(c4C)COC5=O)N[C@@H](C)C3)c2)ncc1C#N` [Example 98-I, 4-methyl-6-(4-(((3S,5R)-3-methyl-5-(4-methyl-1-oxo-1,3-dihydroisobenzofur-an-5-yl)piperazin-1-yl)methyl)-1H-imidazol-1-yl)nicotinonitrile], the inhibition at 1 µM came to 9.3%.
Regarding `COc1cc(-n2ncc(CN3CC[C@@H](O)[C@H](c4ccc5c(c4C)COC5=O)C3)n2)ncc1C#N` [Example 111-I, 6-(4-(((3R,4R)-4-hydroxy-3-(4-methyl-1-oxo-1,3-dihydroisobenzofur-an-5-yl)piperidin-1-yl)methyl)-2H-1,2,3-triazol-2-yl)-4-methoxynicotinonit-rile], the inhibition at 1 µM was determined as 5.1%.
On the same count and under the same terms, next, `Cc1cc(-n2cc(CN3CCNC(c4ccc5c(c4C)COC5=O)C3C)cn2)ncc1C#N` (stereo not drawn) [Example 115-I, 4-methyl-6-(4-((2-methyl-3-(4-methyl-1-oxo-1,3-dihydroisobenzofuran-5-yl)piperazin-1-yl)methyl)-1H-pyrazol-1-yl)nicotinonitrile]: 45%; `Cc1cn(-c2ccc(CN3CCN[C@H](c4ccc5c(c4C)COC5=O)C3)nn2)cn1` [Example 153-I, (R)-4-methyl-5-(4-((6-(4-methyl-1H-imidazol-1-yl)pyridazin-3-yl)methyl)piperazin-2-yl)isobenzofuran-1(3H)-one]: 10%; `Cc1cc(-n2nc(C)c(CN3CCN[C@H](c4ccc5c(c4C)COC5=O)C3)n2)ncc1C#N` [Example 169-I, (R)-4-methyl-6-(4-methyl-5-((3-(4-methyl-1-oxo-1,3-dihydroisobenzofuran-5-yl)piperazin-1-yl)methyl)-2H-1,2,3-triazol-2-yl)nicotinonitrile]: 12%.
Still for that read-out and setting: in the case of `Cc1c([C@@H]2CN(Cc3cnn(-c4cc(C(F)(F)F)c(C#N)cn4)c3)C[C@H](C)N2)ccc2c1COC2=O` [Example 196-I, 6-(4-(((3S,5R)-3-methyl-5-(4-methyl-1-oxo-1,3-dihydroisobenzofuran-5-yl)piperazin-1-yl)methyl)-1H-pyraozl-1-yl)-4-(trifluoromethyl)nicotinonitrile] it was 18%; in that of `Cc1c([C@@H]2CN(Cc3cnc(-n4cnc(C(F)(F)F)c4)nc3)CCN2)ccc2c1COC2=O` [Example 236-I, (R)-4-methyl-5-(4-((2-(4-(triflouromethyl)-1H-imidazol-1-yl)pyrimidin-5-yl)methyl)piperazin-2-yl)isobenzofuran-1(3H)-one], 20%.
Still for that read-out and setting: next, `[2H]C([2H])([2H])Oc1cc(-n2cc(CN3CCN[C@H](c4ccc5c(c4C)COC5=O)C3)nn2)ncc1C#N` [Example 263-I, (R)-4-(methoxy-d3)-6-(4-((3-(4-methyl-1-oxo-1,3-dihydroisobenzofuran-5-yl)piperazin-1-yl)methyl)-1H-1,2,3-triazol-1-yl)nicotinonitrile]: 10%; `Cc1c([C@@H]2CN(Cc3cn(-c4ccnc(C(F)F)c4)c(=O)n3C)C[C@H](C)N2)ccc2c1COC2=O` [Example 276-I, 1-(2-(difluoromethyl)pyridin-4-yl)-3-methyl-4-(((3S,5R)-3-methyl-5-(4-methyl-1-oxo-1,3-dihydroisobenzofuran-5-yl)piperazin-1-yl)methyl)-1,3-dihydro-2H-imidazol-2-one]: 5.4%.

The values above are taken from patent publication US10501449B2 (priority 2018, dated 2019).
